Test results taken from US6143740A, “Heregulin antagonists and methods for their use” (Georgetown University, priority 1999, dated 2000).

Key:
[1] = system: 32D/erbB-4 cells; assay: IL-3 stimulated (HRG-independent) growth, 32D/erbB-4; format: cell-based, murine
Description: (§1) Inhibition of HRG-dependent cell proliferation--Since most human cancer cells express more than one of the erbB receptors and different heterodimerization might alter the binding affinity and/or internalization, it is difficult to define the exact correlation of the receptor expression and the antagonist activity of the small molecules. To overcome this difficulty, a 32D cell (murine, hematopoietic) model system, in which the 32D cells were transfected with erbB4 receptor, can be utilized. […] 32t cells transfected with erbB-4 will proliferate in the presence of either HRG or IL-3. With this 32D cell model system, compounds of the invention can be tested for their antagonist activity and specificity in both HRG-dependent and HRG-independent growth.

[2] = system: EGF-mediated signaling pathway (MDA-468 cells); assay: Specificity: incubation with EGF in EGFR overexpressing cell line MDA-468; format: cell-based
[3] = system: HRG-induced tyrosine phosphorylation (MDA-453 cells); assay: Inhibition of HRG-induced phosphorylation, dose dependence in MDA-453 cells; format: cell-based; conditions: 10 nM HRG
Method: (§2) The ability of compounds of the invention to block HRG-induced phosphorylation was tested by co-incubation with 10 nM HRG (maximal induction).

[4] = system: 32D cells; assay: IL-3 stimulated (HRG-independent) growth, 32D; format: cell-based, murine
Description: as §1

[5] = system: 32D/erbB-4 cells; assay: HRG-dependent cell proliferation, 32D/erbB-4; format: cell-based, murine
Description: as §1

[6] = system: HRG receptor; assay: Structure-activity relationship of rifamycin analogues as heregulin antagonists (FIGS. 6 and 7); format: cell-based; conditions: substituent at C9 position
Method: Replacement of residues 177 and 178 by an acetyl group decreases the binding affinity of HRG to its receptor by more than 50-fold (Barbacci et al., J. Bio. Chem. 1995; 270(16)9585-9).
The structure-activity relationships of rifamycin analogues also indicates the importance of this region (FIGS. 6 and 7).
Inhibition of receptor binding--To investigate whether a compound can inhibit binding between HRG and its receptors, binding assays were performed using ^125 I labeled EGF domain of HRG-β1 (HED-β1). The binding affinity of iodine-labeled HED-β1 in T47D or MDA-453 cells was pre-determined. Unlabeled compounds were co-incubatedwith the radiolabeled ligand for 2 hours at 4° C., and the cells were washed 3 times with an ice-cold binding buffer. The labeled cells were lysed, and counted in a gamma-counter. Compounds that displaced more than 50% of labeled HED-β1 from the HRG-receptors were then re-examined in a dose-dependent manner.
as §2

SMILES	inhibition of IL-3 stimulated growth [1]	effect on EGF-mediated signaling pathway [2]	inhibition of HRG-induced phosphorylation [3]	inhibition of IL-3 stimulated growth [4]	HRG-dependent cell growth inhibition [5]	antagonist activity (structure-activity, FIGS. 6 and 7) [6]
COC1C=COC2(C)Oc3c(C)c(O)c4c(O)c(c(C=NN5C(C)CN(Cc6cccc(O)c6)CC5C)c(O)c4c3C2=O)NC(=O)C(C)=CC=CC(C)C(O)C(C)C(O)C(C)C(OC(C)=O)C1C (stereo not drawn) [Compound A1]	not IL-3 stimulated growth	no or very little effect	dose-dependent inhibition	not IL-3 stimulated growth	inhibit only the HRG-dependent cell growth	–
COC1C=COC2(C)Oc3c(C)c(O)c4c(O)c(c(C=NN(C)C56CC7CC(CC(C7)C5)C6)c(O)c4c3C2=O)NC(=O)C(C)=CC=CC(C)C(O)C(C)C(O)C(C)C(OC(C)=O)C1C (stereo not drawn) [Compound A3]	–	no or very little effect	dose-dependent inhibition	–	–	fairly good activities
COC1C=COC2(C)Oc3c(C)c(O)c4c(O)c(c(C=NN5CCCCCCCCCCCCCCCCC5)c(O)c4c3C2=O)NC(=O)C(C)=CC=CC(C)C(O)C(C)C(O)C(C)C(OC(C)=O)C1C (stereo not drawn) [Compound A4]	–	–	–	–	–	fairly good activities
